Assay results reported in the supplement of paper PMC10721915.
± gives the standard deviation of the averaged measurements.

Compound: COc1ccc([C@@H](O)c2cc(-c3ncnc4cc(N5CCOCC5)ccc34)c(F)cc2Cl)nn1 [peposertib]
Assay: relative cell growth vs untreated control (GI, NCI-DTP normalisation with time-zero) (fraction of control growth); higher = more growth / less inhibition
Conditions: treatment time: 120 h
Experimental: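 Cancer cell lines were treated with peposertib (DNA-PK inhibitor) combined with gamma ionizing radiation (0, 2, 3 or 6 Gy) for 120 h, starting 48 h after seeding. Read-out was sulforhodamine B total-protein staining, normalised to untreated control and time-zero wells (NCI-DTP GI convention).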

[1] = peposertib concentration 0.00488 µM, gamma irradiation dose (Gy): 0
[2] = peposertib concentration 0.0195 µM, gamma irradiation dose (Gy): 0
[3] = peposertib concentration 0.0781 µM, gamma irradiation dose (Gy): 0
[4] = peposertib concentration 0.313 µM, gamma irradiation dose (Gy): 0
[5] = peposertib concentration 1.25 µM, gamma irradiation dose (Gy): 0
[6] = peposertib concentration 5 µM, gamma irradiation dose (Gy): 0
[7] = peposertib concentration 0.00488 µM, gamma irradiation dose (Gy): 3
[8] = peposertib concentration 0.0195 µM, gamma irradiation dose (Gy): 3
[9] = peposertib concentration 0.0781 µM, gamma irradiation dose (Gy): 3
[10] = peposertib concentration 0.313 µM, gamma irradiation dose (Gy): 3
[11] = peposertib concentration 1.25 µM, gamma irradiation dose (Gy): 3
[12] = peposertib concentration 5 µM, gamma irradiation dose (Gy): 3

Row | Test System | relative cell growth [1] | relative cell growth [2] | relative cell growth [3] | relative cell growth [4] | relative cell growth [5] | relative cell growth [6] | relative cell growth [7] | relative cell growth [8] | relative cell growth [9] | relative cell growth [10] | relative cell growth [11] | relative cell growth [12]
1 | PANC1 | 0.969 | 0.974 | 0.956 | 0.92 | 0.741 | 0.411 | – | – | – | – | – | –
2 | UMUC3 | 1.06 | 1.06 | 0.997 | 0.932 | 0.819 | 0.5 | – | – | – | – | – | –
3 | WSUNHL | 1.07 | 1.08 | 0.713 | 0.513 | 0.0836 | -0.0127 | – | – | – | – | – | –
4 | MHHES1 | 0.994 | 0.99 | 0.974 | 0.915 | 0.776 | 0.458 | – | – | – | – | – | –
5 | JIMT1 | 0.999 | 1.01 | 0.999 | 0.906 | 0.561 | 0.232 | – | – | – | – | – | –
6 | MIAPACA2 | 1.05 ± 0.024 | 1.07 ± 0.072 | 1.01 ± 0.022 | 0.991 ± 0.07 | 0.891 ± 0.18 | 0.611 ± 0.18 | 0.592 | 0.546 | 0.286 | 0.086 | 0.0368 | 0.0246
7 | SAOS2 | 0.945 | 0.983 | 0.946 | 0.82 | 0.458 | 0.0757 | – | – | – | – | – | –
8 | HS578T | 1.01 | 1.01 | 1.02 | 0.947 | 0.581 | 0.182 | – | – | – | – | – | –
9 | MDAMB435 | 0.989 | 1.03 | 1.02 | 0.924 | 0.721 | 0.207 | – | – | – | – | – | –
10 | NCIH292 | 0.959 ± 0.031 | 1.017 ± 0.0086 | 0.924 ± 0.039 | 0.684 ± 0.078 | 0.33 ± 0.064 | 0.00769 ± 0.042 | 0.526 | 0.511 | 0.357 | 0.21 | 0.0579 | -0.0162
11 | U2OS | 1.05 | 1.04 | 1 | 0.966 | 0.815 | 0.529 | – | – | – | – | – | –
12 | RD | 0.929 | 0.97 | 0.942 | 0.94 | 0.826 | 0.455 | – | – | – | – | – | –
13 | A2780 | 1.03 | 1.04 | 1.02 | 0.999 | 0.858 | 0.156 | – | – | – | – | – | –
14 | EJ28 | 1.05 | 1.02 | 1.02 | 0.945 | 0.824 | 0.554 | – | – | – | – | – | –
15 | A549 | 1.031 ± 0.01 | 1.02 ± 0.014 | 0.966 ± 0.019 | 0.782 ± 0.071 | 0.442 ± 0.079 | 0.113 ± 0.013 | 0.766 | 0.613 | 0.256 | 0.0863 | 0.0255 | 0.0147
16 | HS729 | 1.05 | 1.06 | 1.02 | 0.867 | 0.716 | 0.422 | – | – | – | – | – | –
17 | SKMEL5 | 1.07 | 1.07 | 1.11 | 1.08 | 0.72 | 0.202 | – | – | – | – | – | –
18 | MINO | 0.833 | 0.904 | 0.937 | 0.73 | 0.326 | 0.0668 | – | – | – | – | – | –

Row | Test System | relative cell growth [1] | relative cell growth [2] | relative cell growth [3] | relative cell growth [4] | relative cell growth [5] | relative cell growth [6] | relative cell growth [7] | relative cell growth [8] | relative cell growth [9] | relative cell growth [10] | relative cell growth [11] | relative cell growth [12]
19 | T24 | 1.01 | 0.992 | 0.979 | 0.927 | 0.838 | 0.748 | – | – | – | – | – | –
20 | U87MG | 1.23 | 1.06 | 1.02 | 0.733 | 0.257 | 0.116 | – | – | – | – | – | –
21 | OVCAR3 | 0.907 | 0.952 | 0.919 | 0.739 | 0.372 | 0.0464 | – | – | – | – | – | –
22 | SW620 | 1.03 ± 0.033 | 1.01 ± 0.048 | 0.992 ± 0.054 | 0.94 ± 0.046 | 0.833 ± 0.15 | 0.675 ± 0.2 | 0.3 | 0.245 | 0.131 | 0.044 | 0.0135 | 0.0174
23 | PLCPRF5 | 1.01 | 0.969 | 0.974 | 0.898 | 0.807 | 0.586 | – | – | – | – | – | –
24 | MT3 | 0.994 | 0.98 | 0.951 | 0.828 | 0.415 | 0.0961 | – | – | – | – | – | –
25 | COLO205 | 0.984 ± 0.071 | 0.996 ± 0.039 | 1.01 ± 0.044 | 0.969 ± 0.029 | 0.7949 ± 0.007 | 0.351 ± 0.04 | 0.413 | 0.367 | 0.203 | 0.0736 | 0.0589 | 0.0686
26 | MDAMB231 | 1.11 | 1.1 | 1.06 | 1.04 | 0.995 | 0.84 | – | – | – | – | – | –
27 | OVCAR4 | 1.03 | 1.01 | 0.983 | 0.875 | 0.858 | 0.633 | – | – | – | – | – | –
28 | NCIH82 | 0.982 ± 0.048 | 1.016 ± 0.0085 | 0.988 ± 0.034 | 0.892 ± 0.15 | 0.718 ± 0.24 | 0.422 ± 0.055 | 0.219 | 0.187 | 0.11 | 0.0372 | 0.0097 | 0.000329
29 | SUDHL6 | 0.943 | 0.915 | 0.816 | 0.254 | -0.0283 | -0.0413 | – | – | – | – | – | –
30 | HT29 | 0.978 ± 0.029 | 0.9825 ± 0.0091 | 0.974 ± 0.023 | 0.906 ± 0.03 | 0.658 ± 0.021 | 0.252 ± 0.0096 | 0.885 | 0.857 | 0.642 | 0.152 | 0.0553 | 0.0433
31 | THP1 | 0.988 | 0.968 | 0.887 | 0.721 | 0.436 | 0.148 | – | – | – | – | – | –
32 | MDAMB436 | 1.04 | 0.987 | 0.992 | 0.795 | 0.541 | 0.188 | – | – | – | – | – | –
33 | DLD1 | 1.01 ± 0.015 | 0.997 ± 0.014 | 1 ± 0.042 | 0.959 ± 0.033 | 0.842 ± 0.09 | 0.445 ± 0.091 | 0.55 | 0.518 | 0.389 | 0.137 | 0.0235 | 0.00897
34 | MV411 | 0.937 | 0.935 | 0.924 | 0.793 | 0.383 | 0.0939 | – | – | – | – | – | –
35 | DU145 | 0.999 | 0.996 | 0.96 | 0.874 | 0.618 | 0.287 | – | – | – | – | – | –
36 | LOVO | 1.01 ± 0.055 | 0.946 ± 0.026 | 0.83 ± 0.068 | 0.617 ± 0.11 | 0.348 ± 0.083 | 0.16 ± 0.064 | 0.384 | 0.357 | 0.28 | 0.186 | 0.0588 | 0.00966
